{"source": "patent US8367831B2", "about": "“Heterocyclic compound or salt thereof and intermediate thereof” (priority 2006, dated 2013)", "key": {"Cytotoxicity test (XTT)": {"assay": "Cytotoxicity test (XTT)", "type": "cell-based", "conditions": "African green monkey, vero cells, 3 days incubation, absorbance 450 nm, read-out: CC50 (concentration when cell proliferation was inhibited by 50%)", "description": "Each test substance was dissolved in dimethyl sulfoxide and was prepared to each concentration with E-MEM containing 10% FBS, and then 0.1 mL of this solution was dispensed into each well of a 96-well microplate. A vero cell suspension containing 3×10^4 cells/mL was prepared with E-MEM containing 10% FBS, and 0.1 mL of the suspension was inoculated to each well. After incubation in 5% CO2 at 37° C. for 3 days, 50 μL of E-MEM containing 1 mg/mL of 2,3-bis-(2-methoxy-4-nitro-5-sulfophenyl)-5-[(phenylamino)carbonyl]-2H-tetrazolium, inner salt, monosodium salt (XTT) and 25 μM of phenazine methosulfate (PMS) was added to each well. After about 2 hours, the absorbance at 450 nm was measured with a microplate reader.\nThe absorbance ratio of each well supplied with the test substance and the control not containing the test substance was calculated, and the concentration of each compound when cell proliferation was inhibited by 50% (CC50; μg/mL) was calculated."}, "[1]": {"system": "Staphylococcus aureus (S. aureus Smith)", "assay": "S. aureus infection experiment in mice", "type": "in vivo", "conditions": "ICR mice, five per group; intraperitoneal infection; 3 mg/kg subcutaneously once, 1 hour after infection", "description": "ICR mice (male, SPF grade, 4-week old, five mice per group) were used. A bacterial inoculum was prepared by suspending Staphylococcus aureus (S. aureus\nSmith), which was cultured on a Mueller-Hinton agar plate at 37° C. overnight, in sterile physiological saline, preparing a bacterial solution of about 4×10^8 CFU/mL, and diluting the solution 10-fold in 5.6% mucin-phosphate buffer. ICR mice were intraperitoneally administered with the bacterial inoculum (approximately 2×10^7 CFU/mouse) to induce infection. Test substances were dissolved in 10% hydroxypropyl-β-cyclodextrin and 0.05 mol/L hydrochloric acid. […] The number of surviving mice was recorded on 5 days after the infection."}, "S. aureus F-3095": {"system": "S. aureus F-3095", "assay": "Susceptibility test 1: MIC by micro-dilution method", "type": "cell-based", "conditions": "Staphylococcus aureus", "description": "(§1) Test substances were initially dissolved in dimethylsulfoxide. Antibacterial activities (MICs) of the same compounds were determined by the micro-dilution method as recommended by the Japanese Society of Chemotherapy.\n(§2) The bacteria cultured on Mueller-Hinton agar (MHA) plates at 35° C. overnight were suspended in sterile physiological saline in a concentration that was equivalent to 0.5 McFarland. The bacterial inoculum was prepared by 10-fold dilution of this suspension. Approximately 0.005 mL of the bacterial inoculum was inoculated into Cation-adjusted Mueller-Hinton broth (CAMHB, 100 μL/well) containing the test substance and was incubated at 35° C. overnight. The lowest concentration of the test substance at which no bacterial growth was macroscopically observed was determined as the MIC."}, "S. aureus FDA209P": {"system": "S. aureus FDA209P", "assay": "Susceptibility test 1: MIC by micro-dilution method", "type": "cell-based", "conditions": "Staphylococcus aureus, read-out: MIC (μg/mL) S. aureus FDA209P", "description": "as §1, §2"}, "[2]": {"conditions": "F3095, read-out: MIC (μg/mL) S. aureus F-3095"}, "[3]": {"conditions": "F3095, F-3095 (MDRSA), CAMHB, 35° C. overnight, lowest concentration with no macroscopic growth, read-out: MIC (μg/mL) S. aureus F-3095"}, "[4]": {"conditions": "CAMHB, 35° C. overnight, lowest concentration with no macroscopic growth"}}, "note": "Counter-ions that a name gives are not always drawn. Like-named read-outs stand apart in the source and are kept apart here.", "data": [{"compound": "COc1cnc2ncc(=O)n(CCN3CCC(NCc4cc5c(cn4)OCCO5)CC3)c2c1", "note": "[Example 68, 1-(2-(4-((2,3-dihydro(1,4)dioxino(2,3-c)pyridin-7-ylmethyl)amino)piperidin-1-yl)ethyl)-7-methoxypyrido(2,3-b)pyrazin-2(1H)-one hydrochloride]", "values": [{"measurement": "CC50 at 3 days", "setting": "Cytotoxicity test (XTT)", "value": "≥ 51.2", "unit": "µg/mL"}, {"measurement": "number of surviving mice on 5 days after the infection", "setting": "[1]", "value": "all mice"}]}, {"compound": "COc1cnc2ccc(=O)n(CCN3CCC(NCc4cnc5c(c4)OCCO5)CC3)c2c1", "note": "[Example 80, 1-(2-(4-((2,3-dihydro(1,4)dioxino(2,3-b)pyridin-7-yl)methylamino)piperidin-1-yl)ethyl)-7-methoxy-1,5-naphthyridin-2(1H)-one hydrochloride]", "values": [{"measurement": "CC50 at 3 days", "setting": "Cytotoxicity test (XTT)", "value": "≥ 51.2", "unit": "µg/mL"}, {"measurement": "MIC", "setting": "S. aureus F-3095; [2]", "value": 0.0156, "unit": "µg/mL"}, {"measurement": "MIC", "setting": "S. aureus FDA209P", "value": 0.0078, "unit": "µg/mL"}]}, {"compound": "COc1cnc2ccc(=O)n(CCN3CCC(NCc4ccc5c(n4)NC(=O)CS5)CC3)c2c1", "note": "[Example 90, 6-(((1-(2-(7-methoxy-2-oxo-1,5-naphthyridin-1(2H)-yl)ethyl)piperidin-4-yl)amino)methyl)-2H-pyrido(3,2-b)(1,4)thiazin-3(4H)-one]", "values": [{"measurement": "CC50 at 3 days", "setting": "Cytotoxicity test (XTT)", "value": "≥ 51.2", "unit": "µg/mL"}, {"measurement": "MIC", "setting": "S. aureus F-3095; [3]", "value": 0.0313, "unit": "µg/mL"}, {"measurement": "MIC", "setting": "S. aureus FDA209P; [4]", "value": 0.0313, "unit": "µg/mL"}]}, {"compound": "COc1cnc2ccc(=O)n(CCN3CCC(NCc4cnc(C)c(F)c4)CC3)c2c1", "note": "[Example 93, 1-(2-(4-(((5-fluoro-6-methylpyridin-3-yl)methyl)amino)piperidin-1-yl)ethyl)-7-methoxy-1,5-naphthyridin-2(1H)-one]", "values": [{"measurement": "CC50 at 3 days", "setting": "Cytotoxicity test (XTT)", "value": "≥ 51.2", "unit": "µg/mL"}, {"measurement": "MIC", "setting": "S. aureus F-3095; [3]", "value": 0.0313, "unit": "µg/mL"}, {"measurement": "MIC", "setting": "S. aureus FDA209P; [4]", "value": 0.0625, "unit": "µg/mL"}, {"measurement": "number of surviving mice on 5 days after the infection", "setting": "[1]", "value": "all mice"}]}, {"compound": "COc1cnc2ccc(=O)n(CCN3CCC(NCc4cnc(C)c(F)c4)CC3)c2n1", "note": "[Example 96, 5-(2-(4-(((5-fluoro-6-methylpyridin-3-yl)methyl)amino)piperidin-1-yl)ethyl)-3-methoxypyrido(2,3-b)pyrazin-6(5H)-one]", "values": [{"measurement": "CC50 at 3 days", "setting": "Cytotoxicity test (XTT)", "value": "≥ 51.2", "unit": "µg/mL"}, {"measurement": "MIC", "setting": "S. aureus F-3095; [3]", "value": 0.0625, "unit": "µg/mL"}, {"measurement": "MIC", "setting": "S. aureus FDA209P; [4]", "value": 0.0625, "unit": "µg/mL"}]}, {"compound": "O=c1ccc2ncc(F)cc2n1CCN1CCC(NCc2cc3c(cn2)OCCC3)CC1", "note": "[Example 103, 1-(2-(4-((3,4-dihydro-2H-pyrano(2,3-c)pyridin-6-ylmethyl)amino)piperidin-1-yl)ethyl)-7-fluoro-1,5-naphthyridin-2(1H)-one hydrochloride]", "values": [{"measurement": "CC50 at 3 days", "setting": "Cytotoxicity test (XTT)", "value": "≥ 51.2", "unit": "µg/mL"}, {"measurement": "MIC", "setting": "S. aureus F-3095; [2]", "value": 0.0625, "unit": "µg/mL"}, {"measurement": "MIC", "setting": "S. aureus FDA209P", "value": 0.0625, "unit": "µg/mL"}, {"measurement": "number of surviving mice on 5 days after the infection", "setting": "[1]", "value": "all mice"}]}, {"compound": "COc1cnc2ccc(=O)n(CCC3(O)CCC(NCc4cc5c(cn4)OCCO5)CC3)c2n1", "note": "(stereo not shown) [Example 119B, 5-(2-(4-((2,3-dihydro(1,4)dioxino(2,3-c)pyridin-7-ylmethyl)amino)-1-hydroxycyclohexyl)ethyl)-3-methoxypyrido(2,3-b)pyrazin-6(5H)-one]", "values": [{"measurement": "MIC", "setting": "S. aureus F-3095; [3]", "value": 0.0625, "unit": "µg/mL"}, {"measurement": "MIC", "setting": "S. aureus FDA209P; [4]", "value": 0.0625, "unit": "µg/mL"}, {"measurement": "number of surviving mice on 5 days after the infection", "setting": "[1]", "value": "all mice"}]}, {"compound": "COc1cnc2ccc(=O)n(CCN3CCC(NCc4cc(-c5ccco5)on4)CC3)c2c1", "note": "[Example 140, 1-(2-(4-(((5-(2-furyl)isoxazol-3-yl)methyl)amino)piperidin-1-yl)ethyl)-7-methoxy-1,5-naphthyridin-2(1H)-one]", "values": [{"measurement": "MIC", "setting": "S. aureus F-3095; [3]", "value": 0.0156, "unit": "µg/mL"}, {"measurement": "MIC", "setting": "S. aureus FDA209P; [4]", "value": 0.0156, "unit": "µg/mL"}, {"measurement": "number of surviving mice on 5 days after the infection", "setting": "[1]", "value": "all mice"}]}, {"compound": "COc1cnc2c(C)cc(=O)n(CCN3CCC(NCc4cc5c(cn4)OCCO5)CC3)c2c1", "note": "[Example 149, 1-(2-(4-((2,3-dihydro(1,4)dioxino(2,3-c)pyridin-7-ylmethyl)amino)piperidin-1-yl)ethyl)-7-methoxy-4-methyl-1,5-naphthyridin-2(1H)-one hydrochloride]", "values": [{"measurement": "MIC", "setting": "S. aureus F-3095; [2]", "value": 0.0313, "unit": "µg/mL"}, {"measurement": "MIC", "setting": "S. aureus FDA209P", "value": 0.0313, "unit": "µg/mL"}, {"measurement": "number of surviving mice on 5 days after the infection", "setting": "[1]", "value": "all mice"}]}, {"compound": "O=c1ccc2ncc(OC(F)F)cc2n1CCN1CCC(NCc2cc3c(cn2)OCCO3)CC1", "note": "[Example 151, 7-(difluoromethoxy)-1-(2-(4-((2,3-dihydro(1,4)dioxino(2,3-c)pyridin-7-ylmethyl)amino)piperidin-1-yl)ethyl)-1,5-naphthyridin-2(1H)-one hydrochloride]", "values": [{"measurement": "MIC", "setting": "S. aureus F-3095; [2]", "value": 0.125, "unit": "µg/mL"}, {"measurement": "MIC", "setting": "S. aureus FDA209P", "value": 0.0313, "unit": "µg/mL"}, {"measurement": "number of surviving mice on 5 days after the infection", "setting": "[1]", "value": "all mice"}]}]}
